Data published in PubChem BioAssay (NCI).
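Values below derive from 48-hour exposures of cells grown in 96-well plates, with endpoints linearly interpolated between the two concentrations bracketing the appropriate inhibition level. GI50 is the concentration that inhibits growth by half. TGI marks complete inhibition of growth.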

Columns and labels:
Test in all cases: NCI tumour cell line growth inhibition, 48 h
786-0 renal = tested on: 786-0 renal
DU-145 prostate = tested on: DU-145 prostate
P388/ADR leukemia = tested on: P388/ADR leukemia
DMS 273 small cell lung = tested on: DMS 273 small cell lung
DMS 114 small cell lung = tested on: DMS 114 small cell lung
P388 leukemia = tested on: P388 leukemia
XF 498 CNS = tested on: XF 498 CNS
SN12K1 renal = tested on: SN12K1 renal
RXF-631 renal = tested on: RXF-631 renal

O=C(O)c1cc2ccccc2c(Cc2c(O)c(C(=O)O)cc3ccccc23)c1O
TGI (786-0 renal): > 100 µM | TGI (DU-145 prostate): > 100 µM

O=C(Nc1ccccc1)c1cc2ccccc2c(N=Nc2cccc([N+](=O)[O-])c2)c1O
TGI (786-0 renal): > 100 µM | TGI (DU-145 prostate): > 100 µM

COc1cccc(N/C(C)=C2/CCOC2=O)c1
TGI (DU-145 prostate): > 10 µM

C=C1CC[C@@]2(C)[C@@H]([C@@H]1C)[C@H]1CC[C@@H]3[C@@]4(C)CC[C@H](O)C(C)(C)[C@@H]4CC[C@@]3(C)[C@]1(C)C[C@@H]2O
TGI (DU-145 prostate): 17.5 µM

CC1(CO)C(O)CCC2(C)C1CCC1CC3CC12CCC3(O)CO (configuration not stated)
TGI (P388/ADR leukemia): 12.6 µM | TGI (DMS 273 small cell lung): > 100 µM | TGI (DMS 114 small cell lung): > 100 µM | TGI (P388 leukemia): 6.66 µM | TGI (XF 498 CNS): > 100 µM | TGI (SN12K1 renal): > 100 µM

COc1ccc(CN(CCN(C)C)c2ccccn2)cc1 (tested in a mixture with another compound)
TGI (DMS 114 small cell lung): > 100 µM | TGI (786-0 renal): > 100 µM | TGI (XF 498 CNS): > 100 µM

Cc1cc(N(CCC#N)S(=O)(=O)c2ccccc2)ccc1C=Nc1cccc(C(=O)O)c1
TGI (DMS 114 small cell lung): > 100 µM | TGI (RXF-631 renal): > 100 µM

C1=N[C@]23C(=N[C@H](N=C2NCc2ccco2)[C@]24N=CNC2=N[C@H]3N=C4NCc2ccco2)N1
GI50 (DU-145 prostate): > 100 µM | TGI (DU-145 prostate): > 100 µM

O=C(NN1C(=O)C(Cl)C1c1cccc(O)c1)c1ccccc1O (configuration not stated)
TGI (DMS 273 small cell lung): > 100 µM | TGI (DMS 114 small cell lung): > 100 µM | TGI (XF 498 CNS): > 100 µM
